Measurements taken from US4130514A, “Synthesis of peptides” (Armour Pharmaceutical Company, priority 1978, dated 1978).

Assay: adrenocorticotropic activity of the purified peptides (no method described)
Details: peptide purified by carboxymethylcellulose ion-exchange chromatography and Sephadex gel filtration; result in words only

In the case of “[D-ala^1, asn^25 ]-ACTH-(1-25) [[D-ala^1 ,gln^25]-ACTH-(1-25)]”, the adrenocorticotropic activity is reported as “found to have adrenocorticotropic activity”.
